Each compound was assayed against T1, human GLP-1 receptor (Homo sapiens, UniProt P43220) (assay: GLP-1R cAMP Assay). Conditions: cAMP accumulation in CHO cells stably overexpressing the human GLP-1 receptor; 30 min treatment; HitHunter cAMP kit; read-out: EC50.
T1 construct: expressed in transfected cells
Assay type: cell-based
Procedure: cAMP accumulation was measured in Chinese hamster ovary (CHO) cells stably overexpressing the human GLP-1 receptor using the HitHunter cAMP Assay for Small Molecules Kit (Eurofins). Briefly, cells were grown in Ham's F12 Nutrient Mix with 10% FBS, and lifted with Cell Dissociation Buffer, Enzyme free, PBS based (ThermoFisher). […] The anti-cAMP antibody reagent was then added to cells at a 1:2 ratio and 5 μL of mixture was seeded in 384-well small volume white assay plates, at 10,000 cells/well. Cells were then treated with 50 nL compound using an ECHO 550 acoustic dispenser (Labcyte) in a 20-point dose response format in triplicate for 30 min. Cells were then lysed, and detection reagents added according to the manufacturer's protocol. After overnight incubation, luminescence was measured using a Perkin Elmer Envision plate reader. Dose response curves were analyzed using GraphPad Prism 9.0.

T1 sequence (P43220 24-463): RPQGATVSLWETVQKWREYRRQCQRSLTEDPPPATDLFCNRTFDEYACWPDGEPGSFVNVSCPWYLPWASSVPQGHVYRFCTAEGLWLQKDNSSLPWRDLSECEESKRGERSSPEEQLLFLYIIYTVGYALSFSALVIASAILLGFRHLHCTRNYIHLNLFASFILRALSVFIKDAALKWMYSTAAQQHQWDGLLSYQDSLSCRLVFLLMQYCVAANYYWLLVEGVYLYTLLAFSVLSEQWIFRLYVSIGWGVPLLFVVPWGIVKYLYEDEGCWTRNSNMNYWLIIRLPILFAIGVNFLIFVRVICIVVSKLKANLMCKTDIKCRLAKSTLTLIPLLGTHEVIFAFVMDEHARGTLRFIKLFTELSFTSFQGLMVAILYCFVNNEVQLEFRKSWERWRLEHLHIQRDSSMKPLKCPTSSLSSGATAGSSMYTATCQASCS

EC50 [nM]	SMILES
< 50	Cn1cncc1Cn1c(CN2CCC(Oc3ccnc(COc4ccc(Cl)cc4C#N)c3)CC2)nc2ccc(C(=O)O)cc21 [Compound 259, 2-{[4-({2-[(4-chloro-2-cyanophenoxy)methyl]pyridin-4-yl}oxy)piperidin-1-yl]methyl}-1-[(1-methyl-1H-imidazol-5-yl)methyl]-1H-1,3-benzodiazole-6-carboxylic acid]
> 500	O=C(O)c1ccc2nc(CN3CCc4c([nH]c5c(OCc6ccc(Cl)cc6F)cccc45)C3)n(C[C@@H]3CCO3)c2c1 [Example 121, (S)-2-((8-((4-Chloro-2-fluorobenzyl)oxy)-1,3,4,9-tetrahydro-2H-pyrido[3,4-b]indol-2-yl)methyl)-1-(oxetan-2-ylmethyl)-1H-benzo[d]imidazole-6-carboxylic acid]
< 50	CCn1cncc1Cn1c(CN2CCC(C(O)c3cccc(COc4ccc(C)cc4Cl)c3)CC2)nc2ccc(C(=O)O)cc21 (racemic) [Example 130, 2-((4-((3-((2-Chloro-4-methylphenoxy)methyl)phenyl)(hydroxy)methyl)piperidin-1-yl)methyl)-1-((1-ethyl-1H-imidazol-5-yl)methyl)-1H-benzo[d]imidazole-6-carboxylic acid]
< 50	N#Cc1cc(Cl)ccc1OCc1cc(OC2CCN(Cc3nc4ccc(C(=O)O)cc4n3Cc3cnco3)CC2)ccn1 [Compound 240, 2-{[4-({2-[(4-chloro-2-cyanophenoxy)methyl]pyridin-4-yl}oxy)piperidin-1-yl]methyl}-1-[(1,3-oxazol-5-yl)methyl]-1H-1,3-benzodiazole-6-carboxylic acid]
< 50	CCn1cncc1Cn1c(CN2CCC(Cc3cnc(COc4ccc(Cl)cc4C#N)o3)CC2)nc2ccc(C(=O)O)cc21 [Compound 138, 2-{[4-({2-[(4-chloro-2-cyanophenoxy)methyl]-1,3-oxazol-5-yl}methyl)piperidin-1-yl]methyl}-1-[(1-ethyl-1H-imidazol-5-yl)methyl]-1H-1,3-benzodiazole-6-carboxylic acid]
< 50	O=C(O)c1ccc2nc(CN3CCC(Cc4cccc(COc5ccc(Cl)cc5Cl)c4)CC3)n(C[C@@H]3CCO3)c2c1 [Compound 103, 2-{[4-({3-[(2,4-dichlorophenoxy)methyl]phenyl}methyl)piperidin-1-yl]methyl}-1-{[(2S)-oxetan-2-yl]methyl}-1H-1,3-benzodiazole-6-carboxylic acid]
< 50	CCn1cncc1Cn1c(CN2CCC(Cc3ccc(COc4ccc(Cl)cc4Cl)o3)CC2)nc2ccc(C(=O)O)cc21 [Compound 109, 2-{[4-({5-[(2,4-dichlorophenoxy)methyl]furan-2-yl}methyl)piperidin-1-yl]methyl}-1-[(1-ethyl-1H-imidazol-5-yl)methyl]-1H-1,3-benzodiazole-6-carboxylic acid]
< 50	O=C(O)c1ccc2nc(CN3CCC(Oc4ccnc(COc5ccc(C6CC6)cc5F)n4)CC3)n(C[C@@H]3CCO3)c2c1 [Compound 475, 2-{[4-({2-[(4-cyclopropyl-2-fluorophenoxy)methyl]pyrimidin-4-yl}oxy)piperidin-1-yl]methyl}-1-{[(2S)-oxetan-2-yl]methyl}-1H-1,3-benzodiazole-6-carboxylic acid]
< 50	CCn1cncc1Cn1c(CN2CCC(Cc3cccc(COc4ccc(C5CC5)cc4Cl)n3)CC2)nc2ccc(C(=O)O)cc21 [Compound 153, 2-{[4-({6-[(2-chloro-4-cyclopropylphenoxy)methyl]pyridin-2-yl}methyl)piperidin-1-yl]methyl}-1-[(1-ethyl-1H-imidazol-5-yl)methyl]-1H-1,3-benzodiazole-6-carboxylic acid]
< 50	N#Cc1ccc(OCc2ncc(F)c(OC3CCN(Cc4nc5ccc(C(=O)O)cc5n4C[C@@H]4CCO4)CC3)n2)c(F)c1 [Compound 374]
< 50	N#CCC1(Cn2c(CN3CCC(Oc4ccnc(COc5ccc(F)cc5C#N)n4)CC3)nc3c(F)cc(C(=O)O)cc32)CC1 [Compound 349]
